ChEMBL document CHEMBL1124355, “Synthesis and biological activity of some partially modified retro-inverso analogues of cholecystokinin” (J Med Chem, 1989)
Non-standard residues stand in square brackets, D forms with d. Residues, ends and D or L forms follow the SMILES beside them. *: point of attachment. sY = N[C@@H](Cc1ccc(OS(=O)(=O)O)cc1)C(=O)O; Nle = CCCC[C@H](N)C(=O)O; Boc = CC(C)(C)OC(=O)*

Assays:
Rattus norvegicus = species: Rattus norvegicus; assay: Ability of compound to stimulate in vitro amylase release from rat pancreatic acini; type: functional
Cholecystokinin receptor = molecular target: T1, Cholecystokinin receptor (Rattus norvegicus, UniProt P30551+P30553); assay: Ability of compound to Inhibit the binding of [125I]BH-CCK-8 to Cholecystokinin receptor in isolated rat pancreatic acini; type: protein assay
T1 sequence (P30551 whole entry): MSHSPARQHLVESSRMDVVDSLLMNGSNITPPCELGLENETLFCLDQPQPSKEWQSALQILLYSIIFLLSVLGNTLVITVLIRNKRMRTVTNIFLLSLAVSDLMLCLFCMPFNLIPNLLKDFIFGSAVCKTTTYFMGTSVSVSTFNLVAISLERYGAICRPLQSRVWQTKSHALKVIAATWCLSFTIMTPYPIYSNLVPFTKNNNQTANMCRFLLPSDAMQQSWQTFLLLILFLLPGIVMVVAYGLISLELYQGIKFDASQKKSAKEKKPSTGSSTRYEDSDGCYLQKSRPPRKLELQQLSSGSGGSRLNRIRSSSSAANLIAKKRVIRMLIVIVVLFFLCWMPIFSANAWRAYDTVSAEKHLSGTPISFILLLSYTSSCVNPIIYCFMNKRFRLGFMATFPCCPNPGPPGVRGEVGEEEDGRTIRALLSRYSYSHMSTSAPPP
T1 sequence (P30553 whole entry): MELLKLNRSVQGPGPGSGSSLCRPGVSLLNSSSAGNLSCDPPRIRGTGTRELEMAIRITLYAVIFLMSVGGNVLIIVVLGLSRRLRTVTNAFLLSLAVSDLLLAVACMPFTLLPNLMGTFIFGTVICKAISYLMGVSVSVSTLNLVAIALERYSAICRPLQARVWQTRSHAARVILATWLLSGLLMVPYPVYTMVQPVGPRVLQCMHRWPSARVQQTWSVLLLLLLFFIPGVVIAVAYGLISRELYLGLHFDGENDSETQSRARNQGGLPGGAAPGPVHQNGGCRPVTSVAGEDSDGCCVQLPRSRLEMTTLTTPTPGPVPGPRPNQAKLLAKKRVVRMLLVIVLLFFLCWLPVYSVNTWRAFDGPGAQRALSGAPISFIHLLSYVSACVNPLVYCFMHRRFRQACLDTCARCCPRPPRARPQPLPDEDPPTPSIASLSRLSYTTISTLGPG

[1] = Ability of compound to Inhibit the binding of [125I]BH-CCK-8 to Cholecystokinin receptor in isolated guinea pig brain membranes

| SMILES | EC50 (Rattus norvegicus) [nM] | IC50 (Cholecystokinin receptor) [nM] | IC50 [1] [nM] |
| --- | --- | --- | --- |
| CCCC[C@H](NC(=O)[C@H](Cc1ccc(OS(=O)(=O)O)cc1)NC(=O)OC(C)(C)C)C(=O)NCNC(=O)[C@H](Cc1c[nH]c2ccccc12)NC(=O)[C@H](CCCC)NC(=O)[C@H](CC(=O)O)NC(=O)CCc1ccccc1 | 17 | 40 | 100 |
| CCCC[C@@H](NC(=O)CC(=O)N[C@H](Cc1c[nH]c2ccccc12)C(=O)N[C@@H](CCCC)C(=O)N[C@H](CC(=O)O)C(=O)N[C@@H](Cc1ccccc1)C(N)=O)NC(=O)[C@H](Cc1ccc(OS(=O)(=O)O)cc1)NC(=O)C(CC(=O)O)NC(=O)OC(C)(C)C (some centres not stated) | 6 | 500 | 2 |
| CCCC[C@H](NC(=O)[C@H](Cc1ccc(OS(=O)(=O)O)cc1)NC(=O)OC(C)(C)C)C(=O)NCNC(=O)[C@H](Cc1c[nH]c2ccccc12)NC(=O)[C@H](CCCC)NC(=O)[C@H](CC(=O)O)NC(=O)[C@@H](Cc1ccccc1)C(N)=O | 30 | 20 | 1000 |
| CCCC[C@H](NC(=O)[C@H](Cc1ccc(OS(=O)(=O)O)cc1)NC(=O)C(CC(=O)O)NC(=O)OC(C)(C)C)C(=O)NCC(=O)N[C@H](Cc1c[nH]c2ccccc12)C(=O)N[C@@H](CCCC)C(=O)N[C@H](CC(=O)O)NC(=O)CCc1ccccc1 (some centres not stated) | 130 | 100 | 40 |
| CCCC[C@H](NC(=O)[C@H](Cc1ccc(OS(=O)(=O)O)cc1)NC(=O)C(CC(=O)O)NC(=O)OC(C)(C)C)C(=O)NCC(=O)N[C@H](Cc1c[nH]c2ccccc12)C(=O)N[C@@H](CCCC)C(=O)N[C@H](CC(=O)O)NC(=O)[C@@H](Cc1ccccc1)C(N)=O (some centres not stated) | 0.7 | 100 | 10 |

The remaining lines, values ahead:

| EC50 (Rattus norvegicus) [nM] | IC50 (Cholecystokinin receptor) [nM] | IC50 [1] [nM] | SMILES |
| --- | --- | --- | --- |
| 0.05 |  |  | CCCC[C@H](NC(=O)[C@H](Cc1ccc(OS(=O)(=O)O)cc1)NC(=O)OC(C)(C)C)C(=O)NCC(=O)N[C@@H](Cc1c[nH]c2ccccc12)C(=O)N[C@@H](CCCC)C(=O)N[C@@H](CC(=O)O)C(=O)N[C@@H](Cc1ccccc1)C(N)=O (Boc-[sY][Nle]GW[Nle]DF-NH2) |
| 30 | 500 | 30 | CCCC[C@H](NC(=O)[C@H](Cc1ccc(OS(=O)(=O)O)cc1)NC(=O)OC(C)(C)C)C(=O)NCC(=O)N[C@@H](Cc1c[nH]c2ccccc12)C(=O)N[C@@H](CCCC)C(=O)N[C@@H](CC(=O)O)C(=O)N[C@@H](Cc1ccccc1)NC=O |
| 1700 | 4000 | 100 | CCCC[C@H](NC(=O)[C@H](Cc1ccc(OS(=O)(=O)O)cc1)NC(=O)OC(C)(C)C)C(=O)NCC(=O)N[C@H](Cc1c[nH]c2ccccc12)C(=O)N[C@@H](CCCC)C(=O)N[C@@H](CC(=O)O)C(=O)N[C@@H](Cc1ccccc1)NC=O |
